What was measured:
[1] = molecular target: JAK2 (Homo sapiens, UniProt O60674); experiment: experiment of inhibiting kinase activity (Caliper mobility shift assay), JAK2; assay type: biochemical; details: for inhibition at 0.01 µM: at 10 nM; for inhibition at 0.01 µM / inhibition at 0.1 µM: read-out: inhibition rate JAK2; for inhibition at 0.1 µM: at 100 nM; for IC50: kinase activity assay, Table 3
How it was run: (§1)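 Replicate wells; top concentration 10 µM, 3-fold steps, 10 points (or 10 nM/100 nM single doses). Enzyme preincubated 10 min RT with compound; ATP/substrate start; stop solution; Caliper conversion read. IC50 by Hill-slope curve fit.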

[2] = molecular target: CDK7 (Homo sapiens, UniProt P50613); experiment: experiment of inhibiting kinase activity (Caliper mobility shift assay), CDK7; assay type: biochemical; details: read-out: inhibition rate CDK7; for inhibition at 0.1 µM: at 100 nM
How it was run: as §1

[3] = molecular target: LRRK2 (Homo sapiens, UniProt Q5S007); experiment: experiment of inhibiting kinase activity, LRRK2; assay type: biochemical; details: for inhibition at 0.01 µM: at 10 nM; for inhibition at 0.01 µM / inhibition at 0.1 µM: read-out: inhibition rate LRRK2; for inhibition at 0.1 µM: at 100 nM; for IC50: kinase activity assay, Table 3
Chain of LRRK2 (Q5S007 whole entry): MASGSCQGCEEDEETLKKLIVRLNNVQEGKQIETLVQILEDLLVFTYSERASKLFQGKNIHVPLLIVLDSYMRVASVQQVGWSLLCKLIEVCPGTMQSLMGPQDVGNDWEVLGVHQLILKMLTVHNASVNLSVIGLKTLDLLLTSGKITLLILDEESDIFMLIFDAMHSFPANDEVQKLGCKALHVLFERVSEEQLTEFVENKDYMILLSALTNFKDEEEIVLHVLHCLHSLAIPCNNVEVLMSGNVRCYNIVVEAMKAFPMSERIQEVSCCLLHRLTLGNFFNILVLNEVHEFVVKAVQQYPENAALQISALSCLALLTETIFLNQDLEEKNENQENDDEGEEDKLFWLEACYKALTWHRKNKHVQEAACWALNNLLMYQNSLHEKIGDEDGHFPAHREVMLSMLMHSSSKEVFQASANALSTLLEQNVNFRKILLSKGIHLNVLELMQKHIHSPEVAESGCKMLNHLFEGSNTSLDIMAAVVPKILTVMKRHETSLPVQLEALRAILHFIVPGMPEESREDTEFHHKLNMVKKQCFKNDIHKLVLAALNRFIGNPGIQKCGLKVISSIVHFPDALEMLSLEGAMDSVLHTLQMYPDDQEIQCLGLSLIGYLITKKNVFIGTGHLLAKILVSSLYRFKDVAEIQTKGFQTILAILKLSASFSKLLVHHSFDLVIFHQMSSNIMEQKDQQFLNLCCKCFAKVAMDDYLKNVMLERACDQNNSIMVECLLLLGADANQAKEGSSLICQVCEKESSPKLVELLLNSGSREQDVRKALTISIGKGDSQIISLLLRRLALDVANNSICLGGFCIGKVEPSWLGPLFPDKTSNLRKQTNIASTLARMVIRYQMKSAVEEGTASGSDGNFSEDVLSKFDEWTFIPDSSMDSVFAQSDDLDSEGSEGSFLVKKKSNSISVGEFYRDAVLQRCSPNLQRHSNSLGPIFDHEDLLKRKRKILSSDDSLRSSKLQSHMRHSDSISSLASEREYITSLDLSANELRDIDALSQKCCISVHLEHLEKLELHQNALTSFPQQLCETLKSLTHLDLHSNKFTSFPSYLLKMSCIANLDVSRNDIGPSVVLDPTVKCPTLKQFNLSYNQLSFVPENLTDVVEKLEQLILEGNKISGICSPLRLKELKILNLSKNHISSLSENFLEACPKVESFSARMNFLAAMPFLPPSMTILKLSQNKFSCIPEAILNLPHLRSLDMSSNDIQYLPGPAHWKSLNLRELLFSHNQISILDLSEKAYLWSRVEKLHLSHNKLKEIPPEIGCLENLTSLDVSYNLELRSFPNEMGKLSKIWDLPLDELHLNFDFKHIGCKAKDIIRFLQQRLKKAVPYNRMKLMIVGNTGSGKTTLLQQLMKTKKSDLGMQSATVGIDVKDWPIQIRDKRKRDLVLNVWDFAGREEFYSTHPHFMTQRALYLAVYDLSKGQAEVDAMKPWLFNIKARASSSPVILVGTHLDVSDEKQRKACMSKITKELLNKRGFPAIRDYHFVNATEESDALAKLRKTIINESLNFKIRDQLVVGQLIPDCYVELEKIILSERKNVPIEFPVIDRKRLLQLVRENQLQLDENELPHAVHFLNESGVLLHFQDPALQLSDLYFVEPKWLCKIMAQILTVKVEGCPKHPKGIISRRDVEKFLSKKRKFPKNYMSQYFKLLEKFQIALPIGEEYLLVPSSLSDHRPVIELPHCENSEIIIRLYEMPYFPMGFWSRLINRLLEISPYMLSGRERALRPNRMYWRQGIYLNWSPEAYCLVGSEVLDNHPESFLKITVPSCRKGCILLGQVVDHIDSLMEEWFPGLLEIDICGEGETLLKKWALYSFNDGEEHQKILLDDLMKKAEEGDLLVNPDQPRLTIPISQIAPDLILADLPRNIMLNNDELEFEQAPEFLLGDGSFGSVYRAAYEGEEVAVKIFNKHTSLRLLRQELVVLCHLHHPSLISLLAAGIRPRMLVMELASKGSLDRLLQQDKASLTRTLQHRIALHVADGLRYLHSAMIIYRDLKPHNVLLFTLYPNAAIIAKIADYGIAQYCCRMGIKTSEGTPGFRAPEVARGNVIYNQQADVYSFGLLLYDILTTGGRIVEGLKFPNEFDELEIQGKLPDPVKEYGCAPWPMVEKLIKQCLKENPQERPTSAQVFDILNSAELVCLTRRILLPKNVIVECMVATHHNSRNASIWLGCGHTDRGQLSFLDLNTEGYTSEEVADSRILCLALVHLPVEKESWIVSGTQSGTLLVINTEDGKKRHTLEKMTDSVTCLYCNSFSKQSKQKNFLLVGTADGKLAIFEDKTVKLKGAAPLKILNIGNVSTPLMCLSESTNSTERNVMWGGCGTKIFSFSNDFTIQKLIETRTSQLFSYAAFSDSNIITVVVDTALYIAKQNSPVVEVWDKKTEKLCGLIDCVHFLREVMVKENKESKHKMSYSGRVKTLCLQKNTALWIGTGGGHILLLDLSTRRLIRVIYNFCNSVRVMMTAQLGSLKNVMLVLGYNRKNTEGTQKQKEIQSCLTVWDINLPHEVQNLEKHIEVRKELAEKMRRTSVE
Method: The inhibition rates of tested compounds on JAK1, JAK2, JAK3, TYK2, CDK7, CDK9, EGFR (T790M) and LRRK2 kinases were measured. The test concentrations of the compounds were 10 nM and 100 nM, and the detection was performed by replicate wells. Alternatively, compounds were 3-fold serial diluted from 10 µM for 10 concentrations in replicate wells.

[4] = molecular target: T1, JAK1 (Homo sapiens, UniProt P23458); experiment: JAKs cell activity test: detection of pSTAT6 in THP1 cells induced by JAK1_IL-4; assay type: cell-based; details: pSTAT6, IL-4-induced THP1 cells
T1 sequence (P23458 whole entry): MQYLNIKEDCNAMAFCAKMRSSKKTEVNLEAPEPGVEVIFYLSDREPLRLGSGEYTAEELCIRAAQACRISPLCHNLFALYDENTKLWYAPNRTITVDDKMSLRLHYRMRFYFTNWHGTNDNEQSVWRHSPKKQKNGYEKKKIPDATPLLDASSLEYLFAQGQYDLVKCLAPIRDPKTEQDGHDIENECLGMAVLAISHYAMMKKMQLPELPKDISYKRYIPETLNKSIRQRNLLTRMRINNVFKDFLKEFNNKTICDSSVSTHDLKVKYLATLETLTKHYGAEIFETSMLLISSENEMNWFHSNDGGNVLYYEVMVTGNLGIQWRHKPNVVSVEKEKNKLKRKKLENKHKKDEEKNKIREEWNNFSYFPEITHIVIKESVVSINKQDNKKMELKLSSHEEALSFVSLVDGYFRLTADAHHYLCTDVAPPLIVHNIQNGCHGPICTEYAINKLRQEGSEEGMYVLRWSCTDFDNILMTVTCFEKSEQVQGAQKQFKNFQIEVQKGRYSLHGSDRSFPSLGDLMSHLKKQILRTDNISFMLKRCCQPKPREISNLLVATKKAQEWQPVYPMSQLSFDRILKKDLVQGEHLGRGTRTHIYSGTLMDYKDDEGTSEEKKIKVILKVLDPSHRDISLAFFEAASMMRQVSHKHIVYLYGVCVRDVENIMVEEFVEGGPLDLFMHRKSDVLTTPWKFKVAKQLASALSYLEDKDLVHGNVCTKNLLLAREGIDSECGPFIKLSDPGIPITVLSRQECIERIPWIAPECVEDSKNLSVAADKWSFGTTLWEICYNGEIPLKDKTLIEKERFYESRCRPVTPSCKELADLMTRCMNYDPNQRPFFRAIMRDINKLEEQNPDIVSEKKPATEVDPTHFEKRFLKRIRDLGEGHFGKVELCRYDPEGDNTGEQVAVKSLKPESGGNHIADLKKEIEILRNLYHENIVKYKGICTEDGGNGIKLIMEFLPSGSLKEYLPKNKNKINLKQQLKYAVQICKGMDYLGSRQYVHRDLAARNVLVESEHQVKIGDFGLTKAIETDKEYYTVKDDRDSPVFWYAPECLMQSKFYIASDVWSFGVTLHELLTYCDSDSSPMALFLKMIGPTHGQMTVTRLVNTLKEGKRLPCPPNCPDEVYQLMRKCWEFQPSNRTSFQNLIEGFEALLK
Method: Detection of pSTAT6 in THP1 cells induced by JAK1_IL-4
(§2) THP1 cells were collected by centrifugation, resuspended with 1×HBSS, counted and diluted to a certain cell density. They were inoculated in a 384-well plate and cultured in a saturated humidity incubator with 37 °C and 5% CO2. The compound (DMSO final volume of 0.3%) was added to THP1 cells (10 doses in duplicates) and cultured in a saturated humidity incubator with 37 °C and 5% CO2. hIL-4 was added to stimulate cells and cultured in a saturated humidity incubator with 37 °C and 5% CO2. The lysis solution was added and incubated at room temperature. According to the instructions of AlphaLISA SureFire Ultra p-STAT6 detection kit, the lysis solution was transferred to pSTAT6 detection system, and the ALPHA signal was read by PE Envision microplate reader. The inhibition rate Inh%=((DMSO-sample)/(DMSO-background))×100 was calculated. IC50 was obtained by fitting with GraphPad Prism non-linear regression equation, and y=Bottom+(Top-Bottom)/(1+10^((LogIC50-x)×hillslope)), where x was the concentration of the compound and y was the inhibition rate.

[5] = molecular target: T1, JAK1; experiment: experiment of inhibiting kinase activity (Caliper mobility shift assay), JAK1; assay type: biochemical; details: for inhibition at 0.01 µM: at 10 nM; for inhibition at 0.01 µM / inhibition at 0.1 µM: read-out: inhibition rate JAK1; for inhibition at 0.1 µM: at 100 nM; for IC50: kinase activity assay, Table 3
How it was run: as §1

[6] = molecular target: T2, JAK3 (Mus musculus, UniProt Q62137); experiment: JAKs cell activity test: JAK3_pSTAT5 in IL-2-induced CTLL-2 cells; assay type: cell-based; details: pSTAT5, IL-2-induced CTLL-2 cells
T2 construct: endogenous in cells; host or cells: CTLL-2
T2 sequence (Q62137 1-1100): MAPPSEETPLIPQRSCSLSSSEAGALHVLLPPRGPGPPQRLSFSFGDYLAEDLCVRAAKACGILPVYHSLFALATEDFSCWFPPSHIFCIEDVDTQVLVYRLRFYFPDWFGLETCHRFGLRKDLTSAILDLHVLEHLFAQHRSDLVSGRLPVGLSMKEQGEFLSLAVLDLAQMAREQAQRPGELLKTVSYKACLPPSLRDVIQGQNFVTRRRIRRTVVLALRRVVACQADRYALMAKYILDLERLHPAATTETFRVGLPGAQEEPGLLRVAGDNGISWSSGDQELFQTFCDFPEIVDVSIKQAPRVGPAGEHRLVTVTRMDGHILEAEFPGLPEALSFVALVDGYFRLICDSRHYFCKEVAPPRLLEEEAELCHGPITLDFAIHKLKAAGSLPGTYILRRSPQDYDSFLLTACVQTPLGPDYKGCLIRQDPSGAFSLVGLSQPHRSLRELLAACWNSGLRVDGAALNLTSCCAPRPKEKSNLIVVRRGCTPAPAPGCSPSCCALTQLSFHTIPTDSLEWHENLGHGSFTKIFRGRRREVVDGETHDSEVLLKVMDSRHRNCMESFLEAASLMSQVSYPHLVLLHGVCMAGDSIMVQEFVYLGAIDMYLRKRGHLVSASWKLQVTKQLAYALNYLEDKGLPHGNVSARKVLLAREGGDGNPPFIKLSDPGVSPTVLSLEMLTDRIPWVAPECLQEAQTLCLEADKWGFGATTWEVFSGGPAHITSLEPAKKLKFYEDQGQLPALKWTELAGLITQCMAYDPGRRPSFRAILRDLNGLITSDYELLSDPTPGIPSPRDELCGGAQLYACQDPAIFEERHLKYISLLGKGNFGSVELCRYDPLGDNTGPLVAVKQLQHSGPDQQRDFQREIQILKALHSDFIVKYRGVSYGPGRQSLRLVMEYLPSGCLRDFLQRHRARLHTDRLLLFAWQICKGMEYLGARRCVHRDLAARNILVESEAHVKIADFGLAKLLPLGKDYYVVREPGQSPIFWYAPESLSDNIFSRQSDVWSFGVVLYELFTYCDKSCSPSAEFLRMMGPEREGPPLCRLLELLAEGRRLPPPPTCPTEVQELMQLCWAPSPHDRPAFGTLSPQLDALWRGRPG
Method: as §2
JAK2_pSTAT5 was tesed in IL-3-induced BAF3 cells according to the above steps, and JAK3_pSTAT5 was tested in IL-2-induced CTLL-2 cells (without serum stimulation) according to the above steps.

Chain of JAK2 (O60674 whole entry): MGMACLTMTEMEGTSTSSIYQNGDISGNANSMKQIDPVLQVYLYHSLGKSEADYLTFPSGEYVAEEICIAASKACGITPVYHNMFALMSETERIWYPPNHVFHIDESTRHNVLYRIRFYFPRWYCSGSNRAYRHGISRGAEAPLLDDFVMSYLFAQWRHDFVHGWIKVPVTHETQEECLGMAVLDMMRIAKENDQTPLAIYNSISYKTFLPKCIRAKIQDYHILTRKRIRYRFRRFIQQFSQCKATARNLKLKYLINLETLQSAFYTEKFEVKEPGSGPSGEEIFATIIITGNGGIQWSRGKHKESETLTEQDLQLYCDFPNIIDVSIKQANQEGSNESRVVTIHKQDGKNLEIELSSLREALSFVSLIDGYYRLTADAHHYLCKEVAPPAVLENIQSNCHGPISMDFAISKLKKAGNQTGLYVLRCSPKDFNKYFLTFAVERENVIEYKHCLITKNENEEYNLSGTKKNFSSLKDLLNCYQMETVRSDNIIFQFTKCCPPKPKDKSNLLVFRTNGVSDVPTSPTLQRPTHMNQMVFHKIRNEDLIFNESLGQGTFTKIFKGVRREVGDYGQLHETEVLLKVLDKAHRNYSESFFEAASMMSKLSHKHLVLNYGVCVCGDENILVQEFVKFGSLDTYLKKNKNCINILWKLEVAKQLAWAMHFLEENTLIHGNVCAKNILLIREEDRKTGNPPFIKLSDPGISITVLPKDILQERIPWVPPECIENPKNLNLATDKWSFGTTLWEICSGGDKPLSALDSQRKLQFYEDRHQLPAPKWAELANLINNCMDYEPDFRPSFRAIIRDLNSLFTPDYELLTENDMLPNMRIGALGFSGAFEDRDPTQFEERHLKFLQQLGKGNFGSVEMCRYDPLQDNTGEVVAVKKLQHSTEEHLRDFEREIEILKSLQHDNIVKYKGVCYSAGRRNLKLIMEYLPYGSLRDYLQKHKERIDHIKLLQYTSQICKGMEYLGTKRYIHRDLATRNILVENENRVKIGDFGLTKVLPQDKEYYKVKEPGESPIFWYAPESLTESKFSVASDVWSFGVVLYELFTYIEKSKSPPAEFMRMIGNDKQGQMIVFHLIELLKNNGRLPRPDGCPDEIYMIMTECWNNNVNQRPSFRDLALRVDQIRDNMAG

## CN1CCOCCOc2cc(Nc3nc(-c4cnn(C(CC#N)C5CCCC5)c4)c4cc[nH]c4n3)ccc2OCC1 (stereo not drawn) [Example 26, 3-cyclopentyl-3-(4-(2-((7-methyl-2,3,6,7,8,9-hexahydro-5H-benzo[b][1,4,7]trioxa[10]azacyclododecan-13-yl)amino)-7H-pyrrolo[2,3-d]pytimidin-4-yl)-1H-pyrazol-1-yl)propionitrile]
[1]
  inhibition at 0.01 µM: > 80%
  inhibition at 0.1 µM: > 80%
[2]
  inhibition at 0.1 µM: 40 to 79%
[3]
  inhibition at 0.01 µM: > 80%
  inhibition at 0.1 µM: > 80%
[4]
  EC50: < 50 nM
[5]
  inhibition at 0.01 µM: > 80%
  inhibition at 0.1 µM: > 80%
[6]
  EC50: 500 to 5000 nM

## CN1CCOCCOc2cc(Nc3ncc(F)c(-c4ccc(C(=O)NCC#N)cc4)n3)ccc2OCC1 [Example 16, N-(cyanomethyl)-4-(5-fluoro-2-((7-methyl-2,3,6,7,8,9-hexahydro-5H-benzo[b][1,4,7]trioxa[10]azacyclododecan-13-yl)amino)pyrimidin-4-yl)benzamide]
[1]
  inhibition at 0.01 µM: 40 to 79%
  inhibition at 0.1 µM: > 80%
  IC50: < 50 nM
[2]; at 10 nM
  inhibition at 0.01 µM: 25 to 39%
[2]
  inhibition at 0.1 µM: > 80%
[3]
  inhibition at 0.1 µM: 40 to 79%
  IC50: 50 to 200 nM
[4]
  EC50: 50 to 500 nM
[5]
  inhibition at 0.1 µM: 40 to 79%
  IC50: 50 to 200 nM

## CCS(=O)(=O)N1CC(CC#N)(n2cc(-c3nc(Nc4ccc5c(c4)OCCN(C)CCO5)nc4[nH]ccc34)cn2)C1 [Example 28, 2-(1-(ethylsulfonyl)-3-(4-(2-((4-methyl-3,4,5,6-tetrahydro-2H-benzo[b][1,4,7]dioxazolin-9-yl)amino)-7H-pyrrolo[2,3-d]pytimidin-4-yl)-1H-pyrazol-1-yl)azetidin-3-yl) acetonitrile]
[1]
  inhibition at 0.01 µM: > 80%
  inhibition at 0.1 µM: > 80%
  IC50: < 50 nM
[3]
  inhibition at 0.01 µM: 40 to 79%
  inhibition at 0.1 µM: > 80%
  IC50: < 50 nM
[4]
  EC50: < 50 nM
[5]
  inhibition at 0.01 µM: > 80%
  inhibition at 0.1 µM: > 80%
  IC50: < 50 nM
[6]
  EC50: < 50 nM

From patent EP4592286A1, “MACROCYCLIC NITROGEN-CONTAINING CROWN ETHER COMPOUND AND USE THEREOF AS PROTEIN KINASE INHIBITOR” (Artivila Biopharma, priority 2022, dated 2024)
